{"source": "paper PMC6923382", "about": "“Small molecules that inhibit TNF signalling by stabilising an asymmetric form of the trimer” (Nature Communications, 2019)", "key": {"[1]": {"biological_target": "TNF (Homo sapiens, UniProt P01375)", "sequence (P01375 77-233 limits assumed)": "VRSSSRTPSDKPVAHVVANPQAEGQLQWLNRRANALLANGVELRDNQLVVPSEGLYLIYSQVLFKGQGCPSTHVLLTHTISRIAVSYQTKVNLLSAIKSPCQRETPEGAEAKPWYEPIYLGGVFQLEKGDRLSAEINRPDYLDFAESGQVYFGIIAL", "experiment": "TNF reporter gene assay HEK-293, human TNF", "type": "cell-based", "parameters": "stabilise an asymmetrical form of the soluble TNF trimer", "protocol": "Stimulation of HEK-293 cells by TNF leads to activation of the NF-κB pathway. The HEK-Blue^TM CD40L SEAP (secreted embryonic alkaline phosphatase) reporter cell line used to determine TNF activity (InvivoGen, #hkb-CD40, cells were described as mycoplasma free when purchased and were tested using Mycoalert [Lonza] after each batch of assay vial preparation). […] Cells were added to the compound/stimulus mixture and further incubated for 18 h. SEAP was measured using the colorimetric substrate HEK-Blue Detect^TM or QUANTI-Blue^TM from InvivoGen. […] The IC50 was determined as the point of inflexion between the fitted minimum and maximum of the compound dose response curve, calculated using 4PL fitted curve. Mean IC50s are reported as a mean of at least two experiments."}, "[2]": {"experiment": "Blood exposure of UCB-9260 in the mouse models", "type": "in vivo", "conditions": "for concentration at 1 h: zymosan model"}, "[3]": {"conditions": "150mg/kg, CAIA model, individual mice"}}, "note": "Where “and” joins values, the source holds several entries; their conditions need not be identical. Identical values can stand only once. Like-named read-outs stand apart in the source and are kept apart here.", "data": [{"smiles": "Cc1ccc(C)c(Cn2c(C(O)c3ccncc3)nc3ccc(-c4cnn(C)c4)cc32)c1", "note": "(stereo not drawn) [UCB-9260]", "values": [{"measurement": "IC50", "setting": "[1]", "result": 202, "unit": "nM"}, {"measurement": "inhibition of wild-type TNF", "setting": "[1]; 10 pM wild-type TNF, HEK NFκΒ reporter", "result": "inhibited"}, {"measurement": "concentration at 0.5 h", "setting": "[2]; 10mg/kg, human TNF neutrophilia model, individual mice, 0.5h post dose, read-out: Total exposure", "result": "474.6 nM and 924.2 nM and 1089.9 nM"}, {"measurement": "concentration at 0.5 h", "setting": "[2]; 10mg/kg, human TNF neutrophilia model, individual mice, read-out: Free exposure", "result": "26.2 nM and 11.4 nM and 22.2 nM"}, {"measurement": "concentration at 0.5 h", "setting": "[2]; 10mg/kg, mouse TNF neutrophilia model, individual mice, 0.5h post dose, read-out: Total exposure", "result": "1244.4 nM and 1494.9 nM"}, {"measurement": "concentration at 0.5 h", "setting": "[2]; 10mg/kg, mouse TNF neutrophilia model, individual mice, read-out: Free exposure", "result": "29.2 nM and 29.9 nM"}, {"measurement": "concentration at 1 h", "setting": "[2]; 10mg/kg, individual mice, read-out: free exposure 1h post dose", "result": "2.5 nM and 2.4 nM and 0.6 nM and 1.0 nM and 1.8 nM and 4.0 nM and 2.1 nM and 2.3 nM"}, {"measurement": "concentration at 1 h", "setting": "[2]; 10mg/kg, individual mice, read-out: total exposure 1h post dose", "result": "102.2 nM and 99.4 nM and 24.6 nM and 40.4 nM and 74.6 nM and 166.9 nM and 86.4 nM and 96.3 nM"}, {"measurement": "concentration at 0.5 h", "setting": "[2]; 30mg/kg, human TNF neutrophilia model, individual mice, 0.5h post dose, read-out: Total exposure", "result": "10561.3 nM and 11259.5 nM and 3572.5 nM"}, {"measurement": "concentration at 0.5 h", "setting": "[2]; 30mg/kg, human TNF neutrophilia model, individual mice, read-out: Free exposure", "result": "85.7 nM and 253.5 nM and 270.2 nM"}, {"measurement": "concentration at 0.5 h", "setting": "[2]; 30mg/kg, mouse TNF neutrophilia model, individual mice, 0.5h post dose, read-out: Total exposure", "result": "7504.0 nM and 10604.5 nM"}, {"measurement": "concentration at 0.5 h", "setting": "[2]; 30mg/kg, mouse TNF neutrophilia model, individual mice, read-out: Free exposure", "result": "239.5 nM and 180.1 nM"}, {"measurement": "concentration at 1 h", "setting": "[2]; 30mg/kg, individual mice, read-out: free exposure 1h post dose", "result": "92.9 nM and 80.2 nM and 78.8 nM and 67.6 nM and 46.9 nM and 54.7 nM and 89.2 nM"}, {"measurement": "concentration at 1 h", "setting": "[2]; 30mg/kg, individual mice, read-out: total exposure 1h post dose", "result": "3868.9 nM and 3340.4 nM and 3284.9 nM and 2814.8 nM and 1955.1 nM and 2278.1 nM and 3715.9 nM"}, {"measurement": "concentration at 0.5 h", "setting": "[2]; 100mg/kg, human TNF neutrophilia model, individual mice, 0.5h post dose, read-out: Total exposure", "result": "23486.3 nM and 36904.4 nM"}, {"measurement": "concentration at 0.5 h", "setting": "[2]; 100mg/kg, human TNF neutrophilia model, individual mice, read-out: Free exposure", "result": "698.5 nM and 563.7 nM"}, {"measurement": "concentration at 0.5 h", "setting": "[2]; 100mg/kg, mouse TNF neutrophilia model, individual mice, 0.5h post dose, read-out: Total exposure", "result": "80513.8 nM and 31681.7 nM"}, {"measurement": "concentration at 0.5 h", "setting": "[2]; 100mg/kg, mouse TNF neutrophilia model, individual mice, read-out: Free exposure", "result": "760.4 nM and 1932.3 nM"}, {"measurement": "concentration at 1 h", "setting": "[2]; 100mg/kg, individual mice, read-out: free exposure 1h post dose", "result": "700.8 nM and 684.7 nM and 194.3 nM and 787.1 nM and 495.2 nM and 309.3 nM and 1017.0 nM and 852.7 nM"}, {"measurement": "concentration at 1 h", "setting": "[2]; 100mg/kg, individual mice, read-out: total exposure 1h post dose", "result": "29201.0 nM and 28529.7 nM and 8095.9 nM and 32795.2 nM and 20631.9 nM and 12886.1 nM and 42373.7 nM and 35527.1 nM"}, {"measurement": "Cave post 1st dose (free)", "setting": "[2]; 150 mg/kg B.I.D., CAIA model", "result": "307 ± 74", "unit": "nM"}, {"measurement": "Cave post 1st dose total", "setting": "[2]; 150 mg/kg B.I.D., CAIA model", "result": "12,808 ± 3,070 nM"}, {"measurement": "Free UCB-9260, 1 hour", "setting": "[2]; [3]", "result": "535.0 nM and 406.9 nM and 100.9 nM and 971.5 nM and 479.3 nM"}, {"measurement": "Free UCB-9260, 6 hour", "setting": "[2]; [3]", "result": "368.0 nM and 6.0 nM and 50.3 nM and 428.5 nM and 99.9 nM"}, {"measurement": "Total UCB-9260, 1 hour", "setting": "[2]; [3]", "result": "22.292 µM and 16.9554 µM and 4.206 µM and 40.4784 µM and 19.9726 µM and 13.3543 µM"}, {"measurement": "Total UCB-9260, 6 hour", "setting": "[2]; [3]", "result": "15.3347 µM and 0.2521 µM and 2.096 µM and 17.8525 µM and 4.1624 µM and 34.4762 µM"}, {"measurement": "concentration at 0.5 h", "setting": "[2]; 300mg/kg, human TNF neutrophilia model, individual mice, 0.5h post dose, read-out: Total exposure", "result": "57489.1 nM and 49482.4 nM"}, {"measurement": "concentration at 0.5 h", "setting": "[2]; 300mg/kg, human TNF neutrophilia model, individual mice, read-out: Free exposure", "result": "996.6 nM and 1379.7 nM"}, {"measurement": "concentration at 0.5 h", "setting": "[2]; 300mg/kg, mouse TNF neutrophilia model, individual mice, 0.5h post dose, read-out: Total exposure", "result": "47166.3 nM and 48883.6 nM"}, {"measurement": "concentration at 0.5 h", "setting": "[2]; 300mg/kg, mouse TNF neutrophilia model, individual mice, read-out: Free exposure", "result": "1511.9 nM and 1132.0 nM"}, {"measurement": "concentration at 1 h", "setting": "[2]; 300mg/kg, individual mice, read-out: free exposure 1h post dose", "result": "551.7 nM and 816.2 nM and 450.0 nM and 187.4 nM and 584.7 nM and 1013.9 nM and 538.9 nM and 1275.4 nM"}, {"measurement": "concentration at 1 h", "setting": "[2]; 300mg/kg, individual mice, read-out: total exposure 1h post dose", "result": "22987.2 nM and 34009.1 nM and 18750.9 nM and 7806.7 nM and 24360.9 nM and 42244.6 nM and 22455.4 nM and 53141.6 nM"}, {"measurement": "concentration at 0.5 h", "setting": "[2]; Balb/c, mouse, blood, oral, 10 mg/kg, 10 mg/kg p.o., human TNF neutrophilia model, mean n=3 ± s.e.m., read-out: Blood concentration 0.5h post dose total", "result": "830 ± 184", "unit": "nM"}, {"measurement": "concentration at 0.5 h", "setting": "[2]; Balb/c, mouse, blood, oral, 10 mg/kg, 10 mg/kg p.o., mouse TNF neutrophilia model, Fu 2.4%, read-out: Blood concentration 0.5h post dose (free)", "result": "32 ± 2", "unit": "nM"}, {"measurement": "concentration at 0.5 h", "setting": "[2]; Balb/c, mouse, blood, oral, 10 mg/kg, 10 mg/kg p.o., mouse TNF neutrophilia model, mean n=3 ± s.e.m., read-out: Blood concentration 0.5h post dose total", "result": 1320, "unit": "nM"}, {"measurement": "concentration at 0.5 h", "setting": "[2]; Balb/c, mouse, blood, oral, 10 mg/kg, mouse TNF neutrophilia model, individual mice, 0.5h post dose, read-out: Total exposure", "result": 1220, "unit": "nM"}]}]}
